We go through 2 compounds from US6331642A, “Vitamin D3 analogs” (Hoffmann-La Roche Inc., priority 2000, dated 2001).

Where two headings read alike, the source gives them in different places.

One data set relates to telomerase. Kind of data set: Telomerase activity (TRAP assay) in HL-60 cells. In kind it is cell-based. As to conditions: 4 days. The procedure:
Telomerase Activity. To detect the relative telomerase activity, telomeric repeat amplification protocol (TRAP) assays were performed. For human telomerase reverse transcriptase (hTERT), total RNAs were isolated from HL-cells which were treated with either 1,25(OH)2 D3 or 1,25(OH)2 -16-ene-5,6-trans-D3 (10^- 9 10^-8, and 10^-7 M) for 4 days with a monophasic solution of phenol and guanidine isothiocyanate. RT-PCR was performed with 1 μg of total RNA and random hexamer primers. cDNA was amplified using primers specific for the hTERT gene or the GAPDH gene, which was used as a control. The primers used for hTERT were: 5'-[…]-3' (sense) (SEQ ID NO: 1), and 5'-GGATGAAGCGGAGTCTGGA-3'-(antisense) (SEQ ID NO: 2). The thermal cycles were 94° C. for 90 seconds, followed by 33 cycles of 95° C. for 20 seconds, 68° C. for 40 seconds, and 72° C. for 30 seconds. Primers for the GAPDH gene were: 5'-CCATGGAGAAGGCTGGGG-3' (sense) (SEQ ID NO: 3), and 5'-[…]-3' (antisense) (SEQ ID NO: 4). Conditions for GAPDH amplifications were: 94° C. for 2 minutes, 26 cycles of 94° C. for 30 seconds, 62° C. for 40 seconds, 72° C. for 60 seconds, followed by 72° C. for 4 minutes. […]
Telomerase Activity. The effect of 1,25(OH)2 -16-ene-5,6-trans-D3and 1,25(OH)2 D3 (10^-9 -10^-7 M, 4 days) on telomerase activity was evaluated using the TRAP assay.

The subject of a further data set is ventral prostate. Kind of data set: Antiandrogenic activity in castrated testosterone stimulated hamsters, ventral prostate. In kind it is in vivo, male Syrian hamsters. The procedure: 1,25(OH)2 -16-ene-5,6-trans D3 was evaluated for antiandrogenic activity in castrated, testosterone stimulated male Syrian hamsters.
[…] Both compounds were administered in a vehicle of 0.2 ml sesame oil each. Necropsy was performed on day 15. The prostate and seminal vesicles were removed, blotted and weighed. Data were analyzed for statistical significance using the Student's t-test and are expressed as percent inhibition of stimulated response.

A further data set relates to left femur (distal half). Put plainly: Total femoral bone calcium in ovariectomized rats. In kind it is in vivo, adult female rats. The following applies: ovx rats, 19 days, text: calcium in mg/distal half femur, Ovx/Veh. 10.58.
A further data set relates to p27^kip1. Put plainly: Western blot analysis, p27^kip1 in MCF-7 cells. The class given is cell-based. The following applies: Homo sapiens, read-out: increase in expression of p27^kip1. The procedure: Western Blot Analysis. Cells were washed twice with PBS, suspended in Lysis buffer (50 mM Tris Ph 8.0, 150 mM NaCl, 0.1% SDS, 0.5% sodium deoxycholate, 1% NP40, 100 μg/ml phenylmethylsulfonyl fluoride, 2 μg/ml aprotinin, 1 μg/ml pepstatin and 10 μg/ml leupeptin), and placed on ice for 30 minutes. After centrifugation at 15,000 g for 20 minutes at 4° C., the supernatant was collected. Protein concentrations were quantitated. Whole lysates (15 μg) were resolved by 15% sodium dodecyl sulphate polyacrylamide gel, were transferred to an immobilon polyvinylidene difuride membrane and were probed with anti-p27^kip1 rabbit polyclonal antibody and anti-Actin murine monoclonal antibody. Blots were developed.
Western Blot Analysis. The cyclin dependent kinase inhibitors known as p21^waf1 and p27^kip1 are able to inhibit the activity of cyclin kinase and thus slow the progression for the cells through the cell cycle. […] Exposure for one day to 1,25(OH)2 -16-ene-5,6-trans-D3 (10^-7 M) increased expression of p21^waf1 and p27^kip1 by about 3.2-3.5 fold, whereas culture with 1,25(OH)2 D3 (10^-7 M) increased expression of p21^waf1 and p27^kip1 about 1.6-1.8 fold. […] 1,25(OH)2 D3 (10^-7 M, 3 days) increased expression of p21^waf1 and p27^kip1 by 4.8 fold and 3.3 fold, respectively.
For orientation: In western blotting, separated proteins are transferred to a membrane and probed.

The nature of data set [1]: Serum calcium levels in ovariectomized rats. The following applies: ovx rats, Ovx/Veh. 10.41. The class given is in vivo, adult female rats. The procedure: Three month old adult female rats were subjected to bilateral ovariectomy or sham surgery. […] Dose volume was calculated weekly using the group average body weight. Dosing started 17 days post surgery and continued for 19 days. On the 20th day animals were euthanized by carbon dioxide inhalation and left femurs excised.
Blood (1.5 ml) was collected from each animal by orbital puncture under ether anesthesia on day 7 and day 18 of dosing. Blood was collected into serum separator tubes, centrifuged at 2000 rpm for 15 min. and then serum aliquoted for calcium determinations. Serum calcium was determined by colorimetric assay.
For a verification of the effect of ovariectomy on bone calcium, the sham and ovx vehicle groups were compared using student's t-test. The ovx groups were compared by one-way analysis of variance (ANOVA), followed by Fisher's LSD to compare each treatment group to vehicle when the overall effect was statistically significant.

Data set [2] deals with prostate cancer cell line (LNCaP). Put plainly: Clonogenic assay in soft agar, LNCaP. In kind it is cell-based. As to conditions: Homo sapiens, LNCaP cells, read-out: ED50 (effective dose that inhibited 50% colony formation). The procedure: (§1) Cell lines. The breast cancer cell line (MCF-7), prostate cancer cell line (LNCaP) and myeloid leukemia cell line (HL-60) were maintained as follows: MCF-7 cells were maintained in Dulbecco's Modified Eagle Media (DMEM) with 10% fetal calf serum (FCS); LNCaP and HL-60 were cultured in RPMI1640 with 10% FCS; All three cell lines were maintained in a 37° C. incubator containing 5% CO2.
(§2) Vitamin D3 Compounds. The vitamin D3 compounds were dissolved in absolute ethanol at 10^-3 M as stock solution, which were stored at -20° C. and protected from light. For in vitro use, compounds were diluted in DMEM or RPMI medium. For in vivo use, compounds were diluted with phosphate buffered saline (PBS). […]. Washed single-cell suspensions of cells were enumerated and plated into 24-well flat-bottomed plates with a total of […] cells/well in a volume of 400 μl/well. The feeder layer was prepared with agar that had been equilibrated at 42° C. Prior to this step, compounds were pipetted into wells. After incubation, the colonies were counted. All experiments were done at least three times using triplicate plates per experimental point.
(§3) Effect of Vitamin D3 analogs on Clonogenic Assay. […]

In data set [3] the test system is myeloid leukemia cell line (HL-60). Kind of data set: Clonogenic assay in soft agar, HL-60. The class given is cell-based. The following applies: Homo sapiens, HL-60 cells, read-out: ED50 (effective dose that inhibited 50% colony formation). The procedure: as §1, §2, §3
The test system of data set [4] is breast cancer cell line (MCF-7). Put plainly: Clonogenic assay in soft agar, MCF-7. In kind it is cell-based. The following applies: Homo sapiens, MCF7, MCF-7 cells, read-out: ED50 (effective dose that inhibited 50% colony formation). The procedure: as §1, §2, §3
[5] abbreviates: testosterone + 0.1 μg compound s.c. daily, 14 days.

Procedure for left femur (distal half): Three month old adult female rats were subjected to bilateral ovariectomy or sham surgery. After a week of acclimatization the animals were weight grouped and treated by oral gavage at 1 mg/kg of specified concentration. Dose volume was calculated weekly using the group average body weight. Dosing started 17 days post surgery and continued for 19 days. On the 20th day animals were euthanized by carbon dioxide inhalation and left femurs excised.
At necropsy the left femurs from all groups were excised and soft tissue removed. The bones were measured and cut in half at mid-diaphysis; then the distal portion was cut in half longitudinally after removal of the epiphysis. The bone marrow was flushed out and the calcium was extracted by immersion in 5% TCA. The calcium content of TCA extracts was determined by using quantitative, colorimetric determination of calcium. The data were expressed as mean total bone calcium in mg/distal half femur (DHF)±serum.

On to `C=C1/C(=C\C=C2/CCC[C@]3(C)[C@@H]([C@H](C)CCCC(C)(C)O)CC[C@@H]23)C[C@@H](O)C[C@@H]1O` [1,25(OH)2 D3, reference compound], for which the telomerase activity entry in the data set with telomerase (10^-7 M) was “markedly decreased”. In the data set on ventral prostate (non-toxic doses (1 μg)), the “androgen-induced hypertrophy of the ventral prostate gland” value was “inactive”. Besides, in the data set with left femur (distal half) (0.500 μg/kg oral), the “Femur CA/100 g BW” value is reported as 11.91 /100 g BW. Besides, the fold induction at 0.1 µM with p27^kip1 (MCF7, 24 h) was 1.6 to 1.8; with p27^kip1 (MCF7, 72 h) it was 3.3. Further, in data set [1] (dose printed 0500 μg/kg oral), the “Serum Calcium” value was 11.74 mg/dL.

With `C=C1/C(=C/C=C2\CCC[C@]3(C)C([C@H](C)CCCC(C)(C)O)=CC[C@@H]23)C[C@@H](O)C[C@@H]1O` [1,25(OH)2-16-ene-5,6-trans-D3, 1,25-Dihydroxy-16-ene-5,6-trans-cholecalciferol], the IC50 in data set [2] turned out to be 1.4 nM; in data set [3], 0.03 nM; in data set [4] it was 4.3 nM. Also, the telomerase activity result in the data set on telomerase (10^-9 M) is “markedly decreased”. In the data set on ventral prostate (castrated, testosterone stimulated hamsters), the “androgen-induced hypertrophy of the ventral prostate gland” value is recorded as “substantially suppressed”. For the same compound, in the data set with ventral prostate (setting [5]), the “Ventral prostate Inhib. (percent inhibition of stimulated response)” value was 77%. For the same compound, in the data set with ventral prostate (setting [5]), the Ventral prostate weight worked out at 19 ± 2 mg. For the same compound, in the data set with left femur (distal half) (2.000 μg/kg oral), the “Femur CA/100 g BW” value is 11.49 /100 g BW. Further, the fold induction at 0.1 µM in the data set with p27^kip1 (MCF7, 24 h) is 3.2 to 3.5; with p27^kip1 (MCF7, 72 h), 3.4. The “Serum Calcium” value in data set [1] (2.000 μg/kg oral) was found to be 9.98 mg/dL.
